According to patent EP3521435A1, “A HIGH STRINGENCY SELECTION SYSTEM FOR PROTEIN EXPRESSION IN PROLINE-AUXOTROPHIC CELLS” (Bayer AG, priority 2018, dated 2019):

What was measured:
CHO-K1 cells [1] = test: Cell viability post-transfection of transfected cell populations under selection conditions; assay type: cell-based, Chinese hamster; conditions: for recovery of cultures: 0.8 mM DHP; for Viability on day 15 post-transfection: pJF2460
Method in brief: (§1)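 Suspension CHO-K1 nucleofected (1e7 cells, 5 µg linearized DNA) with GFP vectors carrying puromycin marker plus SV40-driven murine P5CS; seeded 2e5 viable cells/ml, selected with 10 µg/ml puromycin or in proline/ornithine-free medium ± added pressure, viability tracked over time. GFP read by flow cytometry (yellow channel, PI-excluded dead cells): MFI and % high fluorescers above set threshold.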

CHO-K1 cells [2] = test: Flow cytometric analysis of GFP expression (MFI, high fluorescing cells) in stably selected cell populations; assay type: cell-based, Chinese hamster; conditions: for improvement of MFI as compared to Puromycin selected cultures / increase of the frequency of high fluorescing cells as compared to Puromycin selected cultures: DHP in proline-free medium
Method in brief: as §1

[3] = pJF1555, CD-Fusion w/o Pro + 0.2 mM DHP
[4] = pJF1576, CD-Fusion w/o Pro + 0.2 mM DHP
[5] = pJF1576, CD-Fusion w/o Pro + 0.4 mM DHP
[6] = Table 11, day 19 post-transfection, pJF1555, CD-Fusion w/o Pro + 0.2 mM DHP
[7] = Table 13, day 19 post-transfection, pJF1555, CD-Fusion w/o Pro + 0.05 mM DHP
[8] = Table 13, day 19 post-transfection, pJF1555, CD-Fusion w/o Pro + 0.1 mM DHP
[9] = Table 13, day 19 post-transfection, pJF1555, CD-Fusion w/o Pro + 0.2 mM DHP
[10] = Table 13, day 19 post-transfection, pJF1555, CD-Fusion w/o Pro + 0.4 mM DHP
[11] = day 22 post-transfection, pJF2055, CD-Fusion w/o Pro + 0.02 mM DHP
[12] = day 22 post-transfection, pJF2055, CD-Fusion w/o Pro + 0.03 mM DHP
[13] = day 22 post-transfection, pJF2055, CD-Fusion w/o Pro + 0.04 mM DHP
[14] = day 22 post-transfection, pJF2055, CD-Fusion w/o Pro + 0.06 mM DHP
[15] = day 22 post-transfection, pJF2055, CD-Fusion w/o Pro + 0.07 mM DHP
[16] = day 22 post-transfection, pJF2055, CD-Fusion w/o Pro + 0.08 mM DHP
[17] = day 22 post-transfection, pJF2303, CD-Fusion w/o Pro + 0.02 mM DHP
[18] = day 22 post-transfection, pJF2303, CD-Fusion w/o Pro + 0.04 mM DHP
[19] = day 22 post-transfection, pJF2303, CD-Fusion w/o Pro + 0.06 mM DHP
[20] = day 22 post-transfection, pJF2303, CD-Fusion w/o Pro + 0.08 mM DHP
[21] = day 22 post-transfection, pJF2303, CD-Fusion w/o Pro + 0.2 mM DHP
[22] = day 22 post-transfection, pJF2303, CD-Fusion w/o Pro + 0.3 mM DHP
[23] = day 22 post-transfection, pJF2303, CD-Fusion w/o Pro + 0.4 mM DHP
[24] = day 22 post-transfection, pJF2303, CD-Fusion w/o Pro + 0.5 mM DHP
[25] = day 29 post-transfection, pJF2460, CD-Fusion w/o Pro + 0.01 mM DHP
[26] = day 29 post-transfection, pJF2460, CD-Fusion w/o Pro + 0.03 mM DHP

## O=C(O)[C@@H]1C=CCN1 [DHP, 3,4-Dehydro-L-Proline]
CHO-K1 cells [1]; pJF1555, even after prolonged incubations
  recovery of cultures: did not recover
CHO-K1 cells [1]; pJF1576
  recovery of cultures: did not recover
CHO-K1 cells [1]; pJF1555, CD-Fusion w/o Pro + 0.05 mM DHP
  Viability on day 12 post-transfection: 83%
CHO-K1 cells [1]; pJF1555, CD-Fusion w/o Pro + 0.1 mM DHP
  Viability on day 12 post-transfection: 53%
CHO-K1 cells [1]; [3]
  Viability on day 12 post-transfection: 40%
  Viability on day 19 post-transfection: 27%
CHO-K1 cells [1]; pJF1555, CD-Fusion w/o Pro + 0.4 mM DHP
  Viability on day 12 post-transfection: 20%
CHO-K1 cells [1]; pJF1555, CD-Fusion w/o Pro + 0.8 mM DHP
  Viability on day 12 post-transfection: 13%
CHO-K1 cells [1]; pJF1555, CD-Fusion w/o Pro + 1 mM DHP
  Viability on day 19 post-transfection: 7%
CHO-K1 cells [1]; pJF1555, CD-Fusion w/o Pro + 5 mM DHP
  Viability on day 19 post-transfection: 6%
CHO-K1 cells [1]; pJF1555, CD-Fusion w/o Pro + 10 mM DHP
  Viability on day 19 post-transfection: 7%
CHO-K1 cells [1]; pJF1555, proline-free medium, even after extension of cultivation
  DHP concentration at which cultures did not recover: ≥ 1 mM
CHO-K1 cells [1]; pJF1576, CD-Fusion w/o Pro + 0.05 mM DHP
  Viability on day 12 post-transfection: 91%
CHO-K1 cells [1]; pJF1576, CD-Fusion w/o Pro + 0.1 mM DHP
  Viability on day 12 post-transfection: 74%
CHO-K1 cells [1]; [4]
  Viability on day 12 post-transfection: 49%
  Viability on day 21 post-transfection: 87.4%
CHO-K1 cells [1]; [5]
  Viability on day 12 post-transfection: 28%
  Viability on day 21 post-transfection: 65.3%
CHO-K1 cells [1]; pJF1576, CD-Fusion w/o Pro + 0.5 mM DHP
  Viability on day 21 post-transfection: 42.8%
CHO-K1 cells [1]; pJF1576, CD-Fusion w/o Pro + 0.6 mM DHP
  Viability on day 21 post-transfection: 35.7%
CHO-K1 cells [1]; pJF1576, CD-Fusion w/o Pro + 0.8 mM DHP
  Viability on day 12 post-transfection: 23%
CHO-K1 cells [1]; pJF1969, CD-Fusion w/o Pro + 0.2 mM DHP
  Viability on day 21 post-transfection: 26.5%
CHO-K1 cells [1]; pJF1969, CD-Fusion w/o Pro + 0.4 mM DHP
  Viability on day 21 post-transfection: 22.9%
CHO-K1 cells [1]; pJF1969, CD-Fusion w/o Pro + 0.5 mM DHP
  Viability on day 21 post-transfection: 23.3%
CHO-K1 cells [1]; pJF1969, CD-Fusion w/o Pro + 0.6 mM DHP
  Viability on day 21 post-transfection: 25.9%
CHO-K1 cells [1]; pJF1970, CD-Fusion w/o Pro + 0.2 mM DHP
  Viability on day 21 post-transfection: 18.2%
CHO-K1 cells [1]; pJF1970, CD-Fusion w/o Pro + 0.4 mM DHP
  Viability on day 21 post-transfection: 21.4%
CHO-K1 cells [1]; pJF1970, CD-Fusion w/o Pro + 0.5 mM DHP
  Viability on day 21 post-transfection: 18.3%
CHO-K1 cells [1]; pJF1970, CD-Fusion w/o Pro + 0.6 mM DHP
  Viability on day 21 post-transfection: 18.2%
CHO-K1 cells [1]; pJF2055, CD-Fusion w/o Pro + 0.02 mM DHP
  Viability on day 22 post-transfection: 99.5%
CHO-K1 cells [1]; pJF2055, CD-Fusion w/o Pro + 0.03 mM DHP
  Viability on day 22 post-transfection: 99.2%
CHO-K1 cells [1]; pJF2055, CD-Fusion w/o Pro + 0.04 mM DHP
  Viability on day 22 post-transfection: 99.2%
CHO-K1 cells [1]; pJF2055, CD-Fusion w/o Pro + 0.06 mM DHP
  Viability on day 22 post-transfection: 83.3%
CHO-K1 cells [1]; pJF2055, CD-Fusion w/o Pro + 0.07 mM DHP
  Viability on day 22 post-transfection: 65.3%
CHO-K1 cells [1]; pJF2055, CD-Fusion w/o Pro + 0.08 mM DHP
  Viability on day 22 post-transfection: 36.3%
CHO-K1 cells [1]; pJF2303, CD-Fusion w/o Pro + 0.02 mM DHP
  Viability on day 22 post-transfection: 99.3%
CHO-K1 cells [1]; pJF2303, CD-Fusion w/o Pro + 0.04 mM DHP
  Viability on day 22 post-transfection: 99.6%
CHO-K1 cells [1]; pJF2303, CD-Fusion w/o Pro + 0.06 mM DHP
  Viability on day 22 post-transfection: 99.4%
CHO-K1 cells [1]; pJF2303, CD-Fusion w/o Pro + 0.08 mM DHP
  Viability on day 22 post-transfection: 99.2%
CHO-K1 cells [1]; pJF2303, CD-Fusion w/o Pro + 0.2 mM DHP
  Viability on day 22 post-transfection: 98.4%
CHO-K1 cells [1]; pJF2303, CD-Fusion w/o Pro + 0.3 mM DHP
  Viability on day 22 post-transfection: 98.2%
CHO-K1 cells [1]; pJF2303, CD-Fusion w/o Pro + 0.4 mM DHP
  Viability on day 22 post-transfection: 98.5%
CHO-K1 cells [1]; pJF2303, CD-Fusion w/o Pro + 0.5 mM DHP
  Viability on day 22 post-transfection: 99.1%
CHO-K1 cells [1]; CD-Fusion w/o Pro + 0.01 mM DHP
  Viability on day 15 post-transfection: 73.2%
CHO-K1 cells [1]; CD-Fusion w/o Pro + 0.03 mM DHP
  Viability on day 15 post-transfection: 44.1%
CHO-K1 cells [1]; CD-Fusion w/o Pro + 0.04 mM DHP
  Viability on day 15 post-transfection: 30.6%
CHO-K1 cells [1]; CD-Fusion w/o Pro + 0.05 mM DHP
  Viability on day 15 post-transfection: 22.8%
CHO-K1 cells [2]; 0.2 mM DHP in proline-free medium, pJF1555, #4 vs #1 of Table 11
  increase in MFI as compared to Puromycin-selected population: 37%
CHO-K1 cells [2]; 0.2 mM DHP in proline-free medium, pJF1555, vs Puromycin-selected population
  increase of the frequency of high fluorescing cells: 71%
CHO-K1 cells [2]; 0.4 mM DHP, pJF1555, Table 13
  improvement of MFI of the stable cell population: 3 fold
  increase of the frequency of high fluorescing cells: 8.7-12.6 fold
CHO-K1 cells [2]; [6]
  Frequency of high fluorescing cells: 5.8%
  Median Fluorescence Intensity (MFI) (yellow): 17880
CHO-K1 cells [2]; [7]
  Frequency of high fluorescing cells: 1.7%
  Median Fluorescence Intensity (MFI) (yellow): 7599
CHO-K1 cells [2]; [8]
  Frequency of high fluorescing cells: 5.6%
  Median Fluorescence Intensity (MFI) (yellow): 14267
CHO-K1 cells [2]; [9]
  Frequency of high fluorescing cells: 5.8%
  Median Fluorescence Intensity (MFI) (yellow): 13748
CHO-K1 cells [2]; [10]
  Frequency of high fluorescing cells: 13.0%
  Median Fluorescence Intensity (MFI) (yellow): 19806
CHO-K1 cells [2]; concentration ranges for DHP giving improvement
  sensitivity to DHP treatment of cultures transfected with pJF2055 relative to pJF2303: about 10 fold
CHO-K1 cells [2]; [11]
  Frequency of high fluorescing cells: 17.3%
  Median Fluorescence Intensity (MFI) (yellow): 24032
CHO-K1 cells [2]; [12]
  Frequency of high fluorescing cells: 18.5%
  Median Fluorescence Intensity (MFI) (yellow): 22607
CHO-K1 cells [2]; [13]
  Frequency of high fluorescing cells: 31.3%
  Median Fluorescence Intensity (MFI) (yellow): 29703
CHO-K1 cells [2]; [14]
  Frequency of high fluorescing cells: 6.9%
  Median Fluorescence Intensity (MFI) (yellow): 15210
CHO-K1 cells [2]; [15]
  Frequency of high fluorescing cells: 8.7%
  Median Fluorescence Intensity (MFI) (yellow): 12393
CHO-K1 cells [2]; [16]
  Frequency of high fluorescing cells: 9.3%
  Median Fluorescence Intensity (MFI) (yellow): 9617
CHO-K1 cells [2]; [17]
  Frequency of high fluorescing cells: 3.3%
  Median Fluorescence Intensity (MFI) (yellow): 12080
CHO-K1 cells [2]; [18]
  Frequency of high fluorescing cells: 5.7%
  Median Fluorescence Intensity (MFI) (yellow): 15503
CHO-K1 cells [2]; [19]
  Frequency of high fluorescing cells: 3.2%
  Median Fluorescence Intensity (MFI) (yellow): 12536
CHO-K1 cells [2]; [20]
  Frequency of high fluorescing cells: 3.7%
  Median Fluorescence Intensity (MFI) (yellow): 14603
CHO-K1 cells [2]; [21]
  Frequency of high fluorescing cells: 14.7%
  Median Fluorescence Intensity (MFI) (yellow): 19163
CHO-K1 cells [2]; [22]
  Frequency of high fluorescing cells: 17.4%
  Median Fluorescence Intensity (MFI) (yellow): 22030
CHO-K1 cells [2]; [23]
  Frequency of high fluorescing cells: 24.5%
  Median Fluorescence Intensity (MFI) (yellow): 26155
CHO-K1 cells [2]; [24]
  Frequency of high fluorescing cells: 19.6%
  Median Fluorescence Intensity (MFI) (yellow): 23616
CHO-K1 cells [2]; [25]
  Frequency of high fluorescing cells: 15.3%
  Median Fluorescence Intensity (MFI) (yellow): 19951
CHO-K1 cells [2]; [26]
  Frequency of high fluorescing cells: 43.6%
  Median Fluorescence Intensity (MFI) (yellow): 31838
CHO-K1 cells [2]; pJF2055, Table 26
  improvement of MFI as compared to Puromycin selected cultures: up to 2.6 fold
  increase of the frequency of high fluorescing cells as compared to Puromycin selected cultures: 7.4-12.7 fold
CHO-K1 cells [2]; pJF2303, Table 26
  improvement of MFI as compared to Puromycin selected cultures: up to 2.3 fold
  increase of the frequency of high fluorescing cells as compared to Puromycin selected cultures: 5.8-9.9 fold
CHO-K1 cells [2]; pJF2460, Table 28
  improvement of MFI as compared to Puromycin selected cultures: up to 2.8 fold
  increase of the frequency of high fluorescing cells as compared to Puromycin selected cultures: up to 19 fold
